Laboratory results reported in patent publication US6143769A, “Phenylacetic acid benzylamides” (Karl Thomae GmbH, priority 1983, dated 2000).
Like-named read-outs stand apart in the source and are kept apart here.

Legend:
[1] = Study 2: plasma concentration, HPLC; format: in vivo, human; details: human, plasma, po
From the text: Blood samples were taken at various times.

glucose = assay: Study 1: whole blood glucose, 2 mg AG-EE 388 ZW capsule, 12 healthy male volunteers; format: in vivo, human; details: 2 mg capsule
[2] = Study 3: plasma concentration of active substance, single test subject; format: in vivo, human; details: for Cmax: read-out: Maximum concentration; for Tmax: read-out: Time of peak concentration; for concentration at 1.5 h: 1.50 h; for concentration at 2.5 h: 2.50 h; for concentration at 3.5 h: 3.50 h
clinical = details: human, plasma, 1 mg
Protocol: More specifically, the studies which follow were carried out on healthy male volunteers in whom the levels of glucose and active substance in the course of time were determined:
In the interests of more precise clarification, study 5 was carried out (randomised, open, crossover). […] 2 hours after administration a standard breakfast (B) was eaten, 5 hours after administration a standard lunch (L) was eaten and 10 hours after administration a standard dinner (D) was eaten. Blood samples were taken at different times. The glucose concentrations were measured in the plasma as in study 1. […] The plasma concentrations of AG-EE 624 ZW were calculated as the difference between the two concentrations found:

Compound: CCOc1cc(CC(=O)NC(CC(C)C)c2ccccc2N2CCCCC2)ccc1C(=O)O (racemic) [AG-EE 388 ZW, 2-ethoxy-4-[N-[1-(2-piperidino-phenyl)-3-methyl-1-butyl]aminocarbonylmethyl]-benzoic acid]
- concentration at 9 h ([1]; 2 mg, 2 mg tablet, 9.00 h): 5.2 ng/mL
- Cmax ([1]; 2 mg capsule p.o., read-out: Maximum concentration): 74 ± 15 ng/mL
- Duration of activity (glucose): about 5 hours
- Glucose, deviation from placebo (glucose; 0 h): n.s.
- Glucose, deviation from placebo (glucose; 0.50 h): n.s.
- Glucose, deviation from placebo (glucose; 0.75 h): -9%
- Glucose, deviation from placebo (glucose; 1.00 h): -17%
- Glucose, deviation from placebo (glucose; 1.50 h): -27%
- Glucose, deviation from placebo (glucose; 2.00 h): -24%
- Glucose, deviation from placebo (glucose; 2.50 h): -19%
- Glucose, deviation from placebo (glucose; 3.00 h): n.s.
- Glucose, deviation from placebo (glucose; 4.00 h): -24%
- Glucose, deviation from placebo (glucose; 5.00 h): -9%
- Glucose, deviation from placebo (glucose; 5.50 h (lunch)): n.s.
- Glucose, deviation from placebo (glucose; 6.00 h): n.s.
- Glucose, deviation from placebo (glucose; 7.00 h (snack)): n.s.
- Glucose, deviation from placebo (glucose; 8.00 h): -5%
- Glucose, deviation from placebo (glucose; 9.00 h): n.s.
- Glucose, deviation from placebo (glucose; 10.00 h (dinner)): n.s.
- Active substance concentration ([2]; 2 mg, 5.00 h): 0 ng/mL
- Active substance concentration ([2]; 4 mg capsule, 0 h): 0 ng/mL
- Active substance concentration ([2]; 4 mg, 0.50 h): 0 ng/mL
- Cmax ([2]; human, plasma, po, 2 mg, 2 mg capsule): 82 ng/mL
- Tmax ([2]; human, plasma, po, 2 mg): 1.75 h
- Cmax ([2]; human, plasma, po, 4 mg, 4 mg capsule): 150 ng/mL
- Tmax ([2]; human, plasma, po, 4 mg): 1.5 h
- concentration at 0.5 h ([2]; human, plasma, po, 2 mg capsule, 0.50 h): 11 ng/mL
- concentration at 0.75 h ([2]; human, plasma, po, 2 mg): 16 ng/mL
- concentration at 1 h ([2]; human, plasma, po, 2 mg): 40 ng/mL
- concentration at 1.25 h ([2]; human, plasma, po, 2 mg): 44 ng/mL
- concentration at 1.5 h ([2]; human, plasma, po, 2 mg): 68 ng/mL
- concentration at 1.75 h ([2]; human, plasma, po, 2 mg): 82 ng/mL
- concentration at 2 h ([2]; human, plasma, po, 2 mg): 82 ng/mL
- concentration at 2.5 h ([2]; human, plasma, po, 2 mg): 80 ng/mL
- concentration at 3 h ([2]; human, plasma, po, 2 mg): 72 ng/mL
- concentration at 3.5 h ([2]; human, plasma, po, 2 mg): 59 ng/mL
- concentration at 4 h ([2]; human, plasma, po, 2 mg): 32 ng/mL
- concentration at 0.75 h ([2]; human, plasma, po, 4 mg): 10 ng/mL
- concentration at 1 h ([2]; human, plasma, po, 4 mg): 72 ng/mL
- concentration at 1.25 h ([2]; human, plasma, po, 4 mg): 130 ng/mL
- concentration at 1.5 h ([2]; human, plasma, po, 4 mg): 150 ng/mL
- concentration at 1.75 h ([2]; human, plasma, po, 4 mg): 148 ng/mL
- concentration at 2 h ([2]; human, plasma, po, 4 mg): 141 ng/mL
- concentration at 2.5 h ([2]; human, plasma, po, 4 mg): 119 ng/mL
- concentration at 3 h ([2]; human, plasma, po, 4 mg): 109 ng/mL
- concentration at 3.5 h ([2]; human, plasma, po, 4 mg): 84 ng/mL
- concentration at 4 h ([2]; human, plasma, po, 4 mg): 71 ng/mL
- concentration at 5 h ([2]; human, plasma, po, 4 mg, 5.00 h): 64 ng/mL
- concentration at 6 h ([2]; human, plasma, po, 4 mg, 6.00 h): 49 ng/mL
- concentration at 7 h ([2]; human, plasma, po, 4 mg, 7.00 h): 21 ng/mL
- concentration at 8 h ([2]; human, plasma, po, 4 mg, 8.00 h): 18 ng/mL
- concentration at 0.08 h (clinical; iv): 33.3 ng/mL
- concentration at 0.17 h (clinical; iv): 74.8 ng/mL
- concentration at 0.25 h (clinical; iv): 104 ng/mL
- concentration at 0.28 h (clinical; iv): 102 ng/mL
- concentration at 0.33 h (clinical; iv): 85.6 ng/mL
- concentration at 0.42 h (clinical; iv): 69.6 ng/mL
- concentration at 0.5 h (clinical; iv): 60.1 ng/mL
- concentration at 0.75 h (clinical; iv): 44.2 ng/mL
- concentration at 1 h (clinical; iv): 35.8 ng/mL
- concentration at 1.25 h (clinical; iv): 31.4 ng/mL
- concentration at 1.5 h (clinical; iv): 27 ng/mL
- concentration at 2 h (clinical; iv): 21 ng/mL
- concentration at 2.5 h (clinical; iv): 17.6 ng/mL
- concentration at 3 h (clinical; iv): 13.5 ng/mL
- concentration at 4 h (clinical; iv): 9.4 ng/mL
- concentration at 5 h (clinical; iv): 7 ng/mL
- concentration at 6 h (clinical; iv): 4 ng/mL
- concentration at 9 h (clinical; iv): 1.5 ng/mL
- concentration at 0.5 h (clinical; po): 35.1 ng/mL
- concentration at 0.75 h (clinical; po): 40.2 ng/mL
- concentration at 1 h (clinical; po): 39.1 ng/mL
- concentration at 1.5 h (clinical; po): 30.8 ng/mL
- concentration at 2 h (clinical; po): 24 ng/mL
- concentration at 3 h (clinical; po): 14.8 ng/mL
- concentration at 4 h (clinical; po): 8.7 ng/mL
- concentration at 5 h (clinical; po): 5.6 ng/mL
- concentration at 6 h (clinical; po): 3.5 ng/mL
- concentration at 9 h (clinical; po): 1.8 ng/mL
